Data: patent US20050043331A1, “Substituted 3-(2,5-disubstituted)pyridyl-4-aryl pyrroles for treating inflammatory diseases” (priority 2002, published 2005)
Where two headings read alike, the source gives them in different places.

What was measured:
[1] = test system: TNF-α; test: In vivo rodent assay for inhibition of LPS-induced TNF-α production; set-up: species or system Mice (BALB/cJ females); settings: 10 mg/kg oral; for inhibition in vivo at 10 mg/kg: Mus musculus, po
Description: Mice (BALB/cJ females, Jackson Laboratories) or rats (Lewis males, Charles River) were fasted for 30 min. The animals were dosed orally on a mg/kg basis at a range of times prior to being injected intraperitoneally with LPS at 1 mg/kg and returned to their cages for 1 h. Animals were anesthetized by CO2, exsanguinated by cardiac puncture and whole blood collected (0.1-0.7 mL). The blood was allowed to clot and serum was transferred to a centrifuge tube. This sample was centrifuged, and serum was collected, aliquoted and frozen at −80° C. Samples were tested by commercial ELISA's for TNF-α (Endogen for mouse TNF-α and Biosource for rat TNF-α).

[2] = test system: TNF-α; test: In-vitro whole cell assay for TNF-α inhibition (LPS-stimulated PBMC, ELISA); format: cell-based; settings: TNF-α by ELISA
Description: Freshly obtained venous blood was anticoagulated with heparin, diluted with an equal volume of phosphate buffered saline (“PBS”) and placed in a sterile tube or other container. Aliquots (30 mL) of this mixture were transferred to centrifuge tubes, which were underlaid with Ficoll-Hypaque (15 mL). The prepared tubes were centrifuged at 400×g, without braking, for 30 min at room temperature. Approximately ½ to ⅔ of the platelet layer above the mononuclear cell band was removed with a pipette. The majority of the mononuclear cell layer was carefully removed using a pipette and these PBMC's were diluted with PBS and spun at 600×g for 15 min. The resulting PBMC's were washed with another portion of PBS and spun at 400×g for 10 min at room temperature. The recovered pellets were diluted in low endotoxin RPMI/1% FCS culture medium, and gave a cell concentration of 0.5-2.0×10^6 PMBC/ mL. A small volume of the suspension was removed for counting on a hemocytometer and the remaining preparation was centrifuged at 200×g for 15 min at room temperature. The recovered pelleted PMBC's were resuspended in RPMI/1% FCS to a concentration of 1.67×10^6/mL.
To run the assay, the PBMC suspension (180 μL) was transferred to duplicate wells of a 96-well flat-bottom microtiter plate and incubated for 1 h at 37° C. A solution of test compound (10 μL: prepared at 20× the desired final concentration) was added to each well and the plate was incubated for 1 h at 37° C. A solution (10 μL) of LPS in RPMI/1% FCS (200 ng/mL) was added and the wells were incubated overnight at 37° C. The supernate (100 μL) was removed from each well and diluted with RPMI/1% FCS (400 μL). The samples were analyzed for TNF-α using a commercial ELISA kit (Genzyme).

[3] = 0.5 h, 0.5 h, read-out: Mouse 10 mg/kg % inhib 0.5 h
[4] = 2 h, 2 h, read-out: Mouse 10 mg/kg % inhib 2 h

IC50 [2] [nM] | SMILES | inhibition in vivo at 10 mg/kg [1, 3] [%] | inhibition in vivo at 10 mg/kg [1, 4] [%] | Mouse 10 mg/kg % inhib 2 h ([1]; 2 h) [%]
138 | O=C1CCn2cc(-c3ccncc3)c(-c3ccc(F)cc3)c21 [Cpd 22, 7-(4-Fluorophenyl)-2,3-dihydro-6-(4-pyridinyl)-1H-pyrrolizin-1-one] | 63 | -3 | –
2560 | O=C1CCCn2c(NCCN3CCOCC3)c(-c3ccncc3)c(-c3ccc(F)cc3)c21 [Cpd 24, 1-(4-Fluorophenyl)-6,7-dihydro-3-[[2-(4-morpholinyl)ethyl]amino]-2-(4-pyridinyl)-8(5H)-indolizinone] | 51 | – | –
101 | OCc1[nH]cc(-c2ccc(F)cc2)c1-c1ccncc1 [Cpd 26, 4-(4-Fluorophenyl)-3-(4-pyridinyl)-1H-pyrrole-2-methanol] | -72 | – | –
192 | Cn1c(N2CCCC2)c(-c2ccncc2)c(-c2ccc(F)cc2)c1C(C)(C)O [Cpd 111] | 37.7 | – | –
59 | Cn1cc(-c2ccncc2)c(-c2ccc(F)cc2)c1-c1cnco1 [Cpd 41, 4-[4-(4-Fluorophenyl)-1-methyl-5-(5-oxazolyl)-1H-pyrrol-3-yl]pyridine] | 53 | – | –
33 | COC(=O)c1c(-c2ccc(F)cc2)c(-c2ccncc2)c(N2CCNCC2)n1C [Cpd 8, 3-(4-Fluorophenyl)-1-methyl-5-(1-piperazinyl)-4-(4-pyridinyl)-1H-pyrrole-2-carboxylic acid methyl ester] | 73 | – | –
4 | CCCC1=C(c2ccnc(N[C@@H](C)c3ccccc3)n2)C(c2ccc(F)cc2)=CC1CCN1CCOCC1 (some centres unmarked) [Cpd 55] | -35 | – | –
120 | COC(=O)c1c(-c2ccc(F)cc2)c(-c2ccncc2)c(-c2ccc(N(C)C)cc2)n1C [Cpd 122] | -22 | – | –
92 | COC(=O)c1c(-c2ccc(F)cc2)c(-c2ccncc2)c(NCCN2CCCCC2)n1C [Cpd 115] | -36 | – | –
150 | O=C1CCCn2cc(-c3ccncc3)c(-c3ccc(F)cc3)c21 [Cpd 134] | 61 | 31 | –
148 | CCCc1c(-c2ccnc(SC)n2)c(-c2ccc(F)cc2)cn1CCCN(C)C [Cpd 48] | -37 | – | –
32 | COC(=O)c1c(-c2ccncc2)c(-c2ccc(F)cc2)c(C#CCCN2CCOCC2)n1C [Cpd 175] | – | -4 | –
1020 | COC(=O)c1c(-c2ccncc2)c(-c2ccc(F)cc2)c(NCCc2ccccc2)n1C [Cpd 152] | 58 | – | –
– | COC(=O)C1CCn2c(I)c(-c3ccncc3)c(-c3ccc(F)cc3)c2C1=O (centres unmarked) [Cpd 136] | 15 | – | –
34 | C=CC#Cc1c(-c2ccc(F)cc2)c(-c2ccncc2)c(C(=O)OC)n1C [Cpd 176] | – | -20 | –
– | Cn1c(CO)c(-c2ccc(F)cc2)c(-c2ccncc2)c1N1CCN(C(=O)OC(C)(C)C)CC1 [Cpd 151] | 83 | – | –
57 | COC(=O)c1c(-c2ccc(F)cc2)c(-c2ccncc2)c(Nc2ccccc2)n1C [Cpd 119] | -10.5 | – | –
894 | COC(=O)c1c(-c2ccncc2)c(-c2ccc(F)cc2)c(C#CCCO)n1C [Cpd 167] | 30 | – | –
190 | COc1ccc(CNCc2[nH]cc(-c3ccncc3)c2-c2ccc(F)cc2)cc1 [Cpd 138] | -30 | – | –
1030 | Cn1cc(-c2ccncc2)c(-c2ccc(F)cc2)c1-c1ncc(-c2ccccc2)o1 [Cpd 36, 4-[4-(4-Fluorophenyl)-1-methyl-5-(5-phenyl-2-oxazolyl)-1H-pyrrol-3-yl]pyridine] | 81 | 35 | –
98 | COC(=O)c1c(-c2ccc(F)cc2)c(-c2ccncc2)c(NCCN(C)C)n1C [Cpd 114] | -43 | – | –
105 | CCn1c(C(=O)OC)c(-c2ccc(F)cc2)c(-c2ccncc2)c1N(C)CCN1CCOCC1 [Cpd 163] | 66 | 13 | –
248 | CCOC(=O)c1c(-c2ccc(F)cc2)c(-c2ccncc2)c(CCCOCc2ccccc2)n1C [Cpd 155] | 51 | – | –
154 | CC(=O)N1CCN(c2c(-c3ccncc3)c(-c3ccc(F)cc3)c(C#N)n2C)CC1 [Cpd 182] | – | 81 | –

IC50 [2] [nM] | SMILES | inhibition in vivo at 10 mg/kg [1, 3] [%] | inhibition in vivo at 10 mg/kg [1, 4] [%] | Mouse 10 mg/kg % inhib 2 h ([1]; 2 h) [%]
401 | CCN1C(=O)c2c(-c3ccncc3)c(-c3ccc(F)cc3)cn2C1=O [Cpd 31, 2-Ethyl-6-(4-fluorophenyl)-7-(4-pyridinyl)-1H-pyrrolo[1,2-c]imidazole-1,3(2H)-dione] | 72 | – | –
117 | CN(CCN1CCOCC1)c1c(-c2ccncc2)c(-c2ccc(F)cc2)cn1C [Cpd 173] | 65 | -17 | –
27 | Cn1cc(-c2ccncc2)c(-c2ccc(F)cc2)c1CNC(=O)Nc1ccccc1 [Cpd 185] | – | 82 | –
326 | COC(=O)C1CCn2cc(-c3ccncc3)c(-c3ccc(F)cc3)c2C1=O (centres unmarked) [Cpd 133] | -9 | – | –
852 | CN(C)CCn1cc(-c2ccncc2)c(-c2ccc(F)cc2)c1CO [Cpd 147] | 20 | – | –
– | Cn1cc(-c2ccncc2)c(-c2ccc(F)cc2)c1C#N [Cpd 169] | – | – | 49
5 | COC(=O)c1c(-c2ccc(F)cc2)c(-c2ccncc2)c(/N=C/N(C)C)n1C [Cpd 15] | 6 | -21 | –
5860 | COC(=O)c1c(-c2ccc(F)cc2)c(-c2ccncc2)c(N2CCN(S(C)(=O)=O)CC2)n1C [Cpd 12, 3-(4-Fluorophenyl)-1-methyl-5-[4-(methylsulfonyl)-1-piperazinyl]-4-(4-pyridinyl)-1H-pyrrole-2-carboxylic acid methyl ester] | -29 | – | –
171 | Cn1cc(-c2ccncc2)c(-c2ccc(F)cc2)c1C#N [Cpd 168] | 67 | – | −19
29 | COC(=O)C1Cn2cc(-c3ccncc3)c(-c3ccc(F)cc3)c2C1=O (centres unmarked) [Cpd 21, 7-(4-Fluorophenyl)-2,3-dihydro-1-oxo-6-(4-pyridinyl)-1H-pyrrolizine-2-carboxylic acid methyl ester] | 44.7 | – | –
135 | CCN1CCN(c2c(-c3ccncc3)c(-c3ccc(F)cc3)c(C(=O)OC)n2C)CC1 [Cpd 124] | 67.8 | – | –
7.7 | COC(=O)c1c(-c2ccc(F)cc2)c(-c2ccncc2)c(C#CCN2CCN(C)CC2)n1C [Cpd 184] | – | 57 | –
– | COC(=O)c1c(-c2ccc(F)cc2)c(-c2ccncc2)c(NCCN2CCNCC2)n1C [Cpd 140] | 77 | – | –
169 | Cn1cc(-c2ccc(F)cc2)c(-c2ccncc2)c1CO [Cpd 112] | 65 | – | –
209 | CCNC(=O)c1[nH]cc(-c2ccc(F)cc2)c1-c1ccncc1 [Cpd 32, N-Ethyl-4-(4-fluorophenyl)-3-(4-pyridinyl)-1H-pyrrole-2-carboxamide] | -24 | – | –
18 | Cn1c(C#N)c(-c2ccc(F)cc2)c(-c2ccncc2)c1N1CCNCC1 [Cpd 186] | – | 67 | –
– | CC(=O)N1CCN(c2c(-c3ccncc3)c(-c3ccc(F)cc3)c(-c3nnco3)n2C)CC1 [Cpd 157] | 19 | – | –
– | COC(=O)c1c(-c2ccc(F)cc2)c(-c2ccncc2)cn1CCN(C)C [Cpd 146] | -32 | – | –
269 | COC(=O)c1c(-c2ccc(F)cc2)c(-c2ccncc2)c(N2CCN(CC3CC3)CC2)n1C [Cpd 128] | 66.3 | – | –
407 | COC(=O)c1c(-c2ccc(F)cc2)c(-c2ccncc2)c(NCc2cccc(OC)c2)n1C [Cpd 177] | – | 63 | –
– | COC(=O)c1c(-c2ccc(F)cc2)c(-c2ccncc2)c(NCCCN2CCOCC2)n1C [Cpd 149] | 64 | – | –
– | COC(=O)c1c(-c2ccc(F)cc2)c(-c2ccncc2)c(-c2ccncc2)n1C [Cpd 137] | 51 | – | –
– | CCCc1c(-c2ccnc(N[C@@H](C)c3ccccc3)n2)c(-c2ccc(F)cc2)cn1C(=O)OC(C)(C)C [Cpd 49] | -79 | – | –
